Source: US6833456B2, “Indolyl-urea derivatives of thienopyridines useful as antiangiogenic agents, and methods for their use” (Agouron Pharmaceuticals, Inc., priority 2002, dated 2004)
pIC50: −log10 of the molar value. “And” between values parts separate entries of the source, which are not always exact repeats. Equal values may be shown once.

Columns and labels:
PDGFRβ = biological target: T1, PDGFRβ (Homo sapiens, UniProt P09619); experiment: PAE-PDGFRβ phosphorylation in PAE-PDGFRB cells assay; assay type: cell-based; settings: PAE cells overexpressing human PDGFRβ, PDGF-BB stimulated; read-out: PAE PDGFR autophos IC50
T1 construct: expressed in transfected cells; host or cells: porcine aorta endothelial (PAE) cells
T1 sequence (P09619 33-1106): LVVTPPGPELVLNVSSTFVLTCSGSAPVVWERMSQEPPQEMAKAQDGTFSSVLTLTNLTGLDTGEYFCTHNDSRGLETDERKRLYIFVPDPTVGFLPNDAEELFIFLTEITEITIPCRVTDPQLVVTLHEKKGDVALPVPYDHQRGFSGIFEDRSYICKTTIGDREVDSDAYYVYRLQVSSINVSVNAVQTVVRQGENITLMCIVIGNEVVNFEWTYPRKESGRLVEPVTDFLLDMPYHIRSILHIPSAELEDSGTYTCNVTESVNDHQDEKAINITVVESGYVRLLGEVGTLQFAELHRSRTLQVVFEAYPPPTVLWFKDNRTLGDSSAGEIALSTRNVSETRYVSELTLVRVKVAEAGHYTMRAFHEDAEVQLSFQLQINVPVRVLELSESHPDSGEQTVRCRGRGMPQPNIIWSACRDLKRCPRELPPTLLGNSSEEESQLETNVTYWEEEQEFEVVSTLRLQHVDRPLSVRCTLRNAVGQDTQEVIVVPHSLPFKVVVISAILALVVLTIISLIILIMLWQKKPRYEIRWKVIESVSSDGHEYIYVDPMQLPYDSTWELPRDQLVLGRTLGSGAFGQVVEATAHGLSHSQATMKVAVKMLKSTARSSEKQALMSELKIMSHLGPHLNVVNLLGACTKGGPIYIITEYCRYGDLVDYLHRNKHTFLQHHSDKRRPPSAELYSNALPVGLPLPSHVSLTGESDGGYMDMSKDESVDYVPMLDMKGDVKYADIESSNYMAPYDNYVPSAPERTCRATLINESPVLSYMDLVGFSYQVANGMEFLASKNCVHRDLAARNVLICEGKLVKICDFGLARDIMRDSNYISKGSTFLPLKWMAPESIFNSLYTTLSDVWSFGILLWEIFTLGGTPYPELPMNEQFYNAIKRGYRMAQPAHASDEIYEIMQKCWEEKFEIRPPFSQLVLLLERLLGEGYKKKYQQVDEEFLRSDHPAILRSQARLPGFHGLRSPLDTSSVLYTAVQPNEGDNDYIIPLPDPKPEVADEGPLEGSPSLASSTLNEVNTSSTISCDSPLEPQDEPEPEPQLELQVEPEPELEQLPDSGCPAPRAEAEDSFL
Outline: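 PAE cells overexpressing human PDGFRβ, serum-starved 16 h (0.1% FBS), compound 1 h at 37° C (0.5% DMSO), then 1 μg/mL PDGF-BB with 2 mM Na3VO4 for 8 min. Receptor captured by anti-PDGFRβ, phosphotyrosine detected by HRP-PY20/TMB at 450 nm; IC50 by four-parameter fit.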

[1] = test system: human umbilical vein endothelial cells (HUVEC); experiment: HUVEC+VEGF proliferation assay; assay type: cell-based; settings: VEGF 6 ng/mL, MTT
Outline: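 HUVEC (passage 3-4), serum-starved 24 h in F12K + 1% FBS, were pre-treated with compound for 1 h (0.1% DMSO final). They were then stimulated with VEGF at 6 ng/mL final. Proliferation was measured after 72 h by MTT dye reduction (4 h), with absorbance read at 595 nm.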

Mouse PK assay = assay type: in vivo, B6 female mice; settings: po; for AUC / Cmax: female, B6, mouse, plasma, 50 mg/kg; for Cmax: p.o., read-out: Mouse Cmax, po ng-h/mL
Outline: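 Plasma levels were measured by HPLC with UV detection after acetonitrile precipitation, using extracted standards, in blood taken up to 4 h (0.5, 1, 2, 4 h) post-dose. Dosing: 50 mg/kg orally or intraperitoneally to two groups of four female B6 mice, vehicle PEG 400:acidified H2O 30:70 suspension.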

Row | Compound | pIC50 (PDGFRβ) | pIC50 ([1]; Homo sapiens, HUVEC, 72 h) | AUC (Mouse PK assay) | Cmax (Mouse PK assay) | Mouse Cmin, po (Mouse PK assay) | pIC50 ([1]; 72 hours)
1 | CNC(=O)n1c(C)cc2cc(Nc3ccnc4cc(C(=O)N5CCC[C@@H]5CO)sc34)ccc21 [Example 1a, 5-[2-(2R-Hydroxymethyl-pyrrolidine-1-carbonyl)-thieno[3,2-b]pyridin-7-ylamino]-2-methyl-indole-1-carboxylic acid methylamide] | 6.62 | 9.04 | 1020 ng·h/mL | 526 ng/mL | 3 ng/mL | –
2 | CNC(=O)n1c(C)cc2cc(Nc3ccnc4cc(C(=O)N5CCC[C@@H]5COC)sc34)ccc21 [Example 1b, 5-[2-(2R-Methoxymethyl-pyrrolidine-1-carbonyl)-thieno[3,2-b]pyridin-7-ylamino]-2-methyl-indole-1-carboxylic acid methylamide] | 7.14 and 7.07 | 9.16 | 78 ng·h/mL | 24 ng/mL | 5 ng/mL | –
3 | Cc1cc2cc(Nc3ccnc4cc(C(=O)N5CCC[C@@H]5CO)sc34)ccc2n1C(=O)NC1CC1 [Example 1c, 5-[2-(2R-Hydroxymethyl-pyrrolidine-1-carbonyl)-thieno[3,2-b]pyridin-7-ylamino]-2-methyl-indole-1-carboxylic acid cyclopropylamide] | < 7.00 and 6.75 | 9.15 | 616 ng·h/mL | 317 ng/mL | 7 ng/mL | –
4 | COC[C@H]1CCCN1C(=O)c1cc2nccc(Nc3ccc4c(c3)cc(C)n4C(=O)NC3CC3)c2s1 [Example 1d, 5-[2-(2R-Methoxymethyl-pyrrolidine-1-carbonyl)-thieno[3,2-b]pyridin-7-ylamino]-2-methyl-indole-1-carboxylic acid cyclopropylamide] | 7.38 and 7.35 and 7.13 | – | 5070 ng·h/mL | 2820 ng/mL | 32 ng/mL | 9.25
5 | Cc1cc2cc(Nc3ccnc4cc(C(=O)N5CC[C@H](O)C5)sc34)ccc2n1C(=O)NC1CC1 [Example 1k, 5-[2-(3S-Hydroxy-pyrrolidine-1-carbonyl)-thieno[3,2-b]pyridin-7-ylamino]-2-methyl-indole-1-carboxylic acid cyclopropylamide] | < 6.00 | – | 18 ng·h/mL | 8 ng/mL | 0 ng/mL | –
6 | CNC(=O)n1c(C)cc2cc(Nc3ccnc4cc(C(=O)N5CC[C@@H](OC)C5)sc34)ccc21 [Example 1l, 5-[2-(3R-Methoxy-pyrrolidine-1-carbonyl)-thieno[3,2-b]pyridin-7-ylamino]-2-methyl-indole-1-carboxylic acid methylamide] | 7.31 and 7.35 and 7.02 | 9.52 | 719 ng·h/mL | 504 ng/mL | 5 ng/mL | –
7 | CNC(=O)n1c(C)cc2cc(Nc3ccnc4cc(C(=O)N5CC[C@@H](O)C5)sc34)ccc21 [Example 1n, 5-[2-(3R-Hydroxy-pyrrolidine-1-carbonyl)-thieno[3,2-b]pyridin-7-ylamino]-2-methyl-indole-1-carboxylic acid methylamide] | < 6.00 and 5.59 | 9.19 | 12 ng·h/mL | 8 ng/mL | 0 ng/mL | –
8 | C#CCNC(=O)n1c(C)cc2cc(Nc3ccnc4cc(C(=O)N5CC[C@@H](O)C5)sc34)ccc21 [Example 1o, 5-[2-(3R-Hydroxy-pyrrolidine-1-carbonyl)-thieno[3,2-b]pyridin-7-ylamino]-2-methyl-indole-1-carboxylic acid prop-2-ynylamide] | 6.27 | 9.47 | 219 ng·h/mL | 100 ng/mL | 6 ng/mL | –
9 | CNC(=O)n1c(C)cc2cc(Nc3ccnc4cc(C(=O)N5CCC[C@H]5COC)sc34)ccc21 [Example 1t, 5-(2-[(S)-2-(methoxymethyl)pyrrolidine-1-carbonyl]thieno[3,2-b]pyridin-7-ylamino)-2-methylindole-1-carboxylic acid methylamide] | 6.94 and < 7.00 and 7.01 | – | 5860 ng·h/mL | 4650 ng/mL | 4 ng/mL | –
10 | CNC(=O)n1c(C)cc2cc(Nc3ccnc4cc(-c5nccn5C)sc34)ccc21 [Example 2a, 5-(2-[1-methyl-1H-imidazol-2-yl]thieno[3,2-b]pyridin-7-ylamino)-2-methylindole-1-carboxylic acid methylamide] | 7.24 and 7.02 and 7.21 and 7.39 | – | 1170 ng·h/mL | 1010 ng/mL | 19 ng/mL | –
11 | CNC(=O)n1c(C)cc2cc(Nc3ccnc4cc(C(=O)N5CCC[C@H]5CO)sc34)ccc21 [Example 2b, 5-(2-[(S)-2-(hydroxymethyl)pyrrolidine-1-carbonyl]thieno[3,2-b]pyridin-7-ylamino)-2-methylindole-1-carboxylic acid methylamide] | 6.07 and < 7.00 and 6.21 and 6.25 and 6.18 and 6.17 | – | 2800 ng·h/mL | 1900 ng/mL | 10 ng/mL | –
12 | COC[C@@H]1CCCN1C(=O)c1cc2nccc(Nc3ccc4c(c3)cc(C)n4C(=O)NC3CC3)c2s1 [Example 2c, 5-(2-[(S)-2-(methoxymethyl)pyrrolidine-1-carbonyl]thieno[3,2-b]pyridin-7-ylamino)-2-methylindole-1-carboxylic acid cyclopropylamide] | 7.08 and 6.98 and 7.06 | 9.36 | 6700 ng·h/mL | 3700 ng/mL | 35 ng/mL | –
13 | Cc1cc2cc(Nc3ccnc4cc(-c5nccn5C)sc34)ccc2n1C(=O)NC1CC1 [Example 2d, 5-(2-[1-methyl-1H-imidazol-2-yl]thieno[3,2-b]pyridin-7-ylamino)-2-methylindole-1-carboxylic acid cyclopropylamide] | 7.96 and 7.60 | 9.82 | 457 ng·h/mL | 411 ng/mL | 0 ng/mL | –
14 | Cc1cc2cc(Nc3ccnc4cc(-c5nc(C(C)(C)O)cs5)sc34)ccc2n1C(=O)NC1CC1 [Example 3b, 5-{2-[4-(1-Hydroxy-1-methyl-ethyl)-thiazol-2-yl]-thieno[3,2-b]pyridin-7-ylamino}-2-methyl-indole-1-carboxylic acid cyclopropylamide] | 6.85 and 6.90 | – | 18800 ng·h/mL | 11100 ng/mL | 252 ng/mL | –
15 | COC[C@@H]1CCCN1C(=O)c1cc2nccc(Oc3ccc4c(c3)cc(C)n4C(=O)NC3CC3)c2s1 [Example 4b, 5-(2-[(S)-2-(methoxymethyl)pyrrolidine-1-carbonyl]thieno[3,2-b]pyridin-7-yloxy)-2-methylindole-1-carboxylic acid cyclopropylamide] | 7.66 and 7.62 and 7.64 | – | 3640 ng·h/mL | 2110 ng/mL | 108 ng/mL | –
16 | C#CCNC(=O)n1c(C)cc2cc(Oc3ccnc4cc(C(=O)N5CCC[C@H]5COC)sc34)ccc21 [Example 4c, 5-(2-[(S)-2-(methoxymethyl)pyrrolidine-1-carbonyl]thieno[3,2-b]pyridin-7-yloxy)-2-methylindole-1-carboxylic acid prop-2-ynylamide] | 7.80 and 7.74 and 7.82 | – | 8310 ng·h/mL | 2760 ng/mL | 313 ng/mL | –
17 | COC[C@@H]1CCCN1C(=O)c1cc2nccc(Oc3ccc4c(c3)cc(C)n4C(=O)NCC#CCO)c2s1 [Example 4d, 5-(2-[(S)-2-(methoxymethyl)pyrrolidine-1-carbonyl]thieno[3,2-b]pyridin-7-yloxy)-2-methylindole-1-carboxylic acid (4-hydroxybut-2-ynyl)amide] | 7.12 and 7.15 and 7.19 | – | 4060 ng·h/mL | 1960 ng/mL | 54 ng/mL | –
18 | C#CCNC(=O)n1c(C)cc2c(F)c(Oc3ccnc4cc(C(=O)N5CCC[C@H]5CO)sc34)ccc21 [Example 5e, 4-Fluoro-5-[2-(2S-hydroxymethyl-pyrrolidine-1-carbonyl)-thieno[3,2-b]pyridin-7-yloxy]-2-methyl-indole-1-carboxylic acid prop-2-ynylamide] | 7.85 | – | 1960 ng·h/mL | 1100 ng/mL | 19 ng/mL | –
19 | CNC(=O)n1c(C)cc2c(F)c(Oc3ccnc4cc(C(=O)N5CCC[C@H]5CO)sc34)ccc21 [Example 5n, 4-Fluoro-5-[(2-{[(2S)-2-(hydroxymethyl)pyrrolidin-1-yl]carbonyl}thieno[3,2-b]pyridin-7-yl)oxy]-N,2-dimethyl-1H-indole-1-carboxamide] | 7.74 | – | 2560 ng·h/mL | 1820 ng/mL | 47 ng/mL | –
20 | C#CCNC(=O)n1c(C)c(Cl)c2c(F)c(Oc3ccnc4cc(C(=O)N5CC[C@H](O)C5)sc34)ccc21 [Example 6d, 3-Chloro-4-fluoro-5-[2-(3S-hydroxy-pyrrolidine-1-carbonyl)-thieno[3,2-b]pyridin-7-yloxy]-2-methyl-indole-1-carboxylic acid prop-2-ynylamide] | 7.54 | – | 1630 ng·h/mL | 302 ng/mL | 125 ng/mL | –
21 | CNC(=O)n1c(C)cc2cc(Oc3ccnc4cc(C(=O)N5CC[C@H](O)C5)sc34)ccc21 [Example 9g, 5-[2-(3S-Hydroxy-pyrrolidine-1-carbonyl)-thieno[3,2-b]pyridin-7-yloxy]-2-methyl-indole-1-carboxylic acid methylamide] | 7.57 and 7.48 | – | 9530 ng·h/mL | 4540 ng/mL | – | –
